# Assay results taken from ChEMBL document CHEMBL1128467, “Novel, potent, and selective 5-HT3 receptor antagonists based on the arylpiperazine skeleton: synthesis, structure, biological activity, and comparative molecular field analysis studies” (J Med Chem, 1995).
# pKi: −log10 of the molar value.
# Assays:
# [1] = target: T1, 5-hydroxytryptamine receptor 1A (Rattus norvegicus, UniProt P19327); assay type: tissue-based, Hippocampus
# T1 sequence (P19327 whole entry): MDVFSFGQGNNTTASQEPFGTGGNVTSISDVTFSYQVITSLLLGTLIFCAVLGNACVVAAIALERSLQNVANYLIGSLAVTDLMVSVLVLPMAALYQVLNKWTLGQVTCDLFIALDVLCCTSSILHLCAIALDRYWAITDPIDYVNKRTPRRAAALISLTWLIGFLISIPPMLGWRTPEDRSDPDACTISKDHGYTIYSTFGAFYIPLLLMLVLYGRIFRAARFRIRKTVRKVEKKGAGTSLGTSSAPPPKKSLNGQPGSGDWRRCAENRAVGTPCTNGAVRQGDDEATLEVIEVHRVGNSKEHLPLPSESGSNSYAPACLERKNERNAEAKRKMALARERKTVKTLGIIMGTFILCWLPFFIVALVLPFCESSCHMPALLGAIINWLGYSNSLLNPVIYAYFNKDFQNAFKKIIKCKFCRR
# [2] = target: T2, 5-hydroxytryptamine receptor 1B (Rattus norvegicus, UniProt P28564); assay: The compound was tested for their binding affinity towards 5-hydroxytryptamine 1B receptor from rat striatum using [3H]5-HT as radioligand; Nonactive at 10 uM
# [3] = target: T3, 5-hydroxytryptamine receptor 2A (Rattus norvegicus, UniProt P14842); details: for pKi: read-out: Ki
# [4] = target: T4, 5-hydroxytryptamine receptor 4 (Cavia porcellus, UniProt O70528); assay: Displacement of [3H]-GR113808 from 5-HT4 receptor of guinea pig striatum
# [5] = target: T5, Serotonin 3 (5-HT3) receptor (Rattus norvegicus, UniProt P35563+Q9JJ16); assay: Binding affinity for 5-hydroxytryptamine 3 receptor from rat cortex using [3H]BRL-43694 as radioligand
# T5 sequence (P35563 whole entry): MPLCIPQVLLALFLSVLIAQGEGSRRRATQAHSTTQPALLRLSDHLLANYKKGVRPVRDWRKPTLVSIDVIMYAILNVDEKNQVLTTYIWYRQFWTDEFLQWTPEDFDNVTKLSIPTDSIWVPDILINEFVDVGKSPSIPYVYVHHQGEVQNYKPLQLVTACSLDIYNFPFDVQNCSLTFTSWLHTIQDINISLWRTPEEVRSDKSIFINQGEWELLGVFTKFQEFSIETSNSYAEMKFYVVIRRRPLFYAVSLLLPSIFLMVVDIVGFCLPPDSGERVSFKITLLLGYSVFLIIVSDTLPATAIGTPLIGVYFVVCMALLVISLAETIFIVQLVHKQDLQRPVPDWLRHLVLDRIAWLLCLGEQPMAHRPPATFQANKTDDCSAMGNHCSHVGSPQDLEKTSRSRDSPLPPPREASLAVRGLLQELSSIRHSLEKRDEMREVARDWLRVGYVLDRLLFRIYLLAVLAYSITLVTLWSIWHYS
# T5 sequence (Q9JJ16 whole entry): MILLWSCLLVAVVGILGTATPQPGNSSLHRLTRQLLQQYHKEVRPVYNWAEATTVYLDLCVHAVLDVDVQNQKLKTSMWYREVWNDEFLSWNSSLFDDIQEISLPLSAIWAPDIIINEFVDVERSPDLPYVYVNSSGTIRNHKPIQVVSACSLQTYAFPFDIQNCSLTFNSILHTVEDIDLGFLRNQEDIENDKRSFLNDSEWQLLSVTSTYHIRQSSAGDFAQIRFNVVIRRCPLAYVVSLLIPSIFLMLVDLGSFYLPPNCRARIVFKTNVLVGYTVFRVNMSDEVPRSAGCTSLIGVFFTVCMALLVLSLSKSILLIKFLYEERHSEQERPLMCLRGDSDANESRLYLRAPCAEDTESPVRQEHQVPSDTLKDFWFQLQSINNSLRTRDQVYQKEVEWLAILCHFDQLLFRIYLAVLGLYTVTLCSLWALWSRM
# [6] = target: T6, Sodium-dependent serotonin transporter (Rattus norvegicus, UniProt P31652)
# [7] = target: 5-hydroxytryptamine receptor 2C (Sus scrofa); assay: The compound was tested for their binding affinity towards 5-hydroxytryptamine 2C receptor
# [8] = target: T2, 5-hydroxytryptamine receptor 1B; assay type: tissue-based, Striatum
# [9] = system: 5-hydroxytryptamine receptor 2C (Sus scrofa)
# [10] = target: T3, 5-hydroxytryptamine receptor 2A; assay: The compound was tested for its binding affinity towards 5-hydroxytryptamine 2A receptor from rat cortex using [3H]-ketanserin as radioligand; Nonactive at 10 uM
# [11] = target: T5, Serotonin 3 (5-HT3) receptor; assay: The compound was tested for its binding affinity towards 5-hydroxytryptamine 3 receptor from rat cortex using [3H]BRL-43694 as radioligand; NA means Not active
# [12] = target: T2, 5-hydroxytryptamine receptor 1B; assay: The compound was tested for their binding affinity towards 5-hydroxytryptamine 1B receptor from rat striatum using [3H]5-HT as radioligand
# [13] = target: T4, 5-hydroxytryptamine receptor 4
# [14] = target: T4, 5-hydroxytryptamine receptor 4; assay: The compound was tested for their binding affinity towards 5-hydroxytryptamine 4 receptor from guinea pig striatum using [3H]GR-113808 as radioligand.
# [15] = target: T5, Serotonin 3 (5-HT3) receptor; assay: The compound was tested for their binding affinity towards 5-hydroxytryptamine 3 receptor; Nonactive at 10 uM; assay type: protein-complex assay
# [16] = target: T4, 5-hydroxytryptamine receptor 4; assay: The compound was tested for their binding affinity towards 5-hydroxytryptamine 4 receptor from guinea pig striatum using [3H]GR-113808 as radioligand; Nonactive at 10 uM
# [17] = target: T6, Sodium-dependent serotonin transporter; assay: Effect of compound on Serotonin transporter uptake from rat cortex using [3H]citalopram as radioligand
# [18] = target: T3, 5-hydroxytryptamine receptor 2A; assay: The compound was tested for its binding affinity towards 5-hydroxytryptamine 2A receptor from rat cortex using [3H]ketanserin as radioligand.; Nonactive at 10 uM
# [19] = system: 5-hydroxytryptamine receptor 2C (Sus scrofa); assay: The compound was tested for their binding affinity towards 5-hydroxytryptamine 2C receptor from pig cortex using [3H]mesulergine as radioligand; Nonactive at 10 uM
# [20] = target: T2, 5-hydroxytryptamine receptor 1B; assay: The compound was tested for their binding affinity towards 5-hydroxytryptamine 1B receptor from rat striatum using [3H]5-HT as radioligand.
# [21] = system: 5-hydroxytryptamine receptor 2C (Sus scrofa); assay: The compound was tested for their binding affinity towards 5-hydroxytryptamine 2C receptor using [3H]mesulergine as radioligand; Nonactive at 10 uM
# [22] = target: T6, Sodium-dependent serotonin transporter; assay: Effect of compound on Serotonin transporter uptake from rat cortex using [3H]citalopram as radioligand; Nonactive at 10 uM
# T4 sequence (O70528 whole entry): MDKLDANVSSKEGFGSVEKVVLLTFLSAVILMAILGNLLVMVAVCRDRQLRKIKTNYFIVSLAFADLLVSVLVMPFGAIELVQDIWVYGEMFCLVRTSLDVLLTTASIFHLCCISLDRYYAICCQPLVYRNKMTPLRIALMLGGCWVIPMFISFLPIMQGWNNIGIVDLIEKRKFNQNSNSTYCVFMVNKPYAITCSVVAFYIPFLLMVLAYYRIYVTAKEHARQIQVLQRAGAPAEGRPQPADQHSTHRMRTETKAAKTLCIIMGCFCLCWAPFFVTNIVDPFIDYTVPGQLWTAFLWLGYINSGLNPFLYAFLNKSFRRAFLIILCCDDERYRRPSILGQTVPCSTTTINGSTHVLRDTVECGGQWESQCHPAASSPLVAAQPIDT
# T6 sequence (P31652 whole entry): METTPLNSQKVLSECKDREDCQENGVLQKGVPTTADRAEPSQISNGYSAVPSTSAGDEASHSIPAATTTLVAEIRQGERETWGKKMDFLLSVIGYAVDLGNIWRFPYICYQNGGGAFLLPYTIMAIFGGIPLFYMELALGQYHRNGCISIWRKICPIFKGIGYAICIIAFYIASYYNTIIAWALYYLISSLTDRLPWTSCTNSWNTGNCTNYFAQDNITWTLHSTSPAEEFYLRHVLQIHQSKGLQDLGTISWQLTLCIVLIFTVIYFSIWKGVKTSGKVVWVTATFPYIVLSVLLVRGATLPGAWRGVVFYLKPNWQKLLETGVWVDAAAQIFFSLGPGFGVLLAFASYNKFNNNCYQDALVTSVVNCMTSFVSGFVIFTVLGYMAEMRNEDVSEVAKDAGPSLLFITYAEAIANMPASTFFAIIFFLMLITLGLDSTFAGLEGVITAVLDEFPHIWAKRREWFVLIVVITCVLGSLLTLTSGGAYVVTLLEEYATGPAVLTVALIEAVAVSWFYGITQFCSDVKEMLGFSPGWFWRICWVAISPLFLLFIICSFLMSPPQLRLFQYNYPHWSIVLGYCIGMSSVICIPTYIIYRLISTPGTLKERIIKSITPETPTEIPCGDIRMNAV
# T2 sequence (P28564 whole entry): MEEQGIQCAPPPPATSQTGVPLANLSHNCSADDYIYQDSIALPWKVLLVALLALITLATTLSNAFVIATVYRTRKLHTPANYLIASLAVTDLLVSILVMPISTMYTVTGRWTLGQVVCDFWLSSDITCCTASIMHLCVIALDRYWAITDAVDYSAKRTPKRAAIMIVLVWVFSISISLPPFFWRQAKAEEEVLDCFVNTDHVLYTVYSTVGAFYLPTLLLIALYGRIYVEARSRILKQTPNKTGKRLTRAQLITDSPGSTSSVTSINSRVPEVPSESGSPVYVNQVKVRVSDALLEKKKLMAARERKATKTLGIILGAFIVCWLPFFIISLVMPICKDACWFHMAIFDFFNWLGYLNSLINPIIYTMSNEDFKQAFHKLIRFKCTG
# T3 sequence (P14842 whole entry): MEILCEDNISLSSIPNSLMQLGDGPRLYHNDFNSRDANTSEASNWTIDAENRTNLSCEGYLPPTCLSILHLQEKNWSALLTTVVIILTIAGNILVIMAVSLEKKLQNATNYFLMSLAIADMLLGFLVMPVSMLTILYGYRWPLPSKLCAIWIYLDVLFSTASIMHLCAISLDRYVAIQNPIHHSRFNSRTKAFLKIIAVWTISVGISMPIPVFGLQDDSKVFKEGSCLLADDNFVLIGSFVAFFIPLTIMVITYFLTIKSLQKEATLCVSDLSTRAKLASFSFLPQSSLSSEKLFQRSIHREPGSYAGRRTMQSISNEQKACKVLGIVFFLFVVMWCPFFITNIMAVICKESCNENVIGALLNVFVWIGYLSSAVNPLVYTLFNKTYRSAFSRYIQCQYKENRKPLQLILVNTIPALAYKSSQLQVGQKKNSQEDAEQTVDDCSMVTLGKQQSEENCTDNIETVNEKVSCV
SMILES,Ki [1],pKi [3],pKi [5],Ki [6],Ki [8],Ki [9],also measured
CN1CCN(c2nc3ccccc3c3c2CCc2ccccc2-3)CC1,Not Active,6.40,8.46,Not Active,–,–,Ki [2]: Not Active; pKi [4]: 5.18; pKi [7]: 5.14
COc1cc2c(N3CCNCC3)nc3ccccc3c2c2ccccc12,Not Active,5.96,7.18,Not Active,Not Active,Not Active,–
CCN1CCN(c2nc3ccccc3c3c2CCOc2ccccc2-3)CC1,Not Active,–,–,–,–,–,Ki [2]: Not Active; Ki [10]: Not Active
CCN1CCN(c2nc3ccccc3c3c2CCc2ccccc2-3)CC1,Not Active,6.22,8.10,Not Active,Not Active,Not Active,–
COc1cc2c(SCCN(C)C)nc3ccccc3c2c2ccccc12,Not Active,–,–,Not Active,Not Active,Not Active,Ki [3]: Not Active; Ki [11]: Not Active
CN(C)CCSc1nc2ccccc2c2c1CCOc1ccccc1-2,Not Active,5.55,7.34,Not Active,–,Not Active,pKi [12]: 5.89
CN1CCN(c2nc3ccccc3c3c2COc2ccccc2-3)CC1,Not Active,5.85,8.80,Not Active,Not Active,Not Active,Ki [13]: Not Active
CN1CCN(c2nc3ccccc3c3c2oc2ccccc23)CC1,Not Active,6.35,7.90,Not Active,Not Active,Not Active,pKi ([14]; read-out: Ki): 5.16
CN(C)CCSc1nc2ccccc2c2c1COc1ccccc1-2,Not Active,5.74,–,Not Active,Not Active,Not Active,Ki [15]: Not Active
CN1CCN(c2nc3ccccc3c3c2CCOc2ccccc2-3)CC1,Not Active,5.62,–,–,Not Active,–,Ki [16]: Not Active
c1ccc2c(c1)OCc1c(N3CCNCC3)nc3ccccc3c1-2,Not Active,5.55,7.94,–,Not Active,Not Active,pKi [17]: 6.44
CN(C)CCSc1nc2ccccc2c2c1oc1ccccc12,Not Active,–,6.39,Not Active,Not Active,Not Active,Ki [18]: Not Active
c1ccc2c(c1)ccc1c(N3CCNCC3)nc3ccccc3c12,Not Active,5.96,6.89,Not Active,Not Active,Not Active,–
c1ccc2c(CCC3CCNCC3)c[nH]c2c1 [INDALPINE],–,–,–,–,–,–,pKi [17]: 8.70
CN(C)CCSc1nc2ccccc2c2c1CCc1ccccc1-2,Not Active,6.03,–,–,–,Not Active,Ki [2]: Not Active; Ki [15]: Not Active
CCN1CCN(c2nc3ccccc3c3c2ccc2ccccc23)CC1,Not Active,6.19,7.79,Not Active,Not Active,Not Active,–
CN1CCN(c2nc3ccccc3c3c2ccc2ccccc23)CC1,Not Active,6.04,8.02,Not Active,Not Active,–,Ki [14]: Not Active; Ki [19]: Not Active
c1ccc2c(c1)nc(N1CCNCC1)c1oc3ccccc3c12,Not Active,5.92,7.49,Not Active,–,–,pKi [20]: 6.55; Ki [21]: Not Active
CCN1CCN(c2nc3ccccc3c3c2oc2ccccc23)CC1,Not Active,6.28,7.28,–,Not Active,Not Active,Ki [22]: Not Active
c1ccc2c(c1)CCc1c(N3CCNCC3)nc3ccccc3c1-2,Not Active,6.19,8.27,–,Not Active,Not Active,pKi [17]: 5.59
CN(C)CCSc1nc2ccccc2c2c1ccc1ccccc12,Not Active,5.62,–,Not Active,Not Active,Not Active,Ki [15]: Not Active
c1ccc2nc(N3CCNCC3)ccc2c1 [QUIPAZINE],–,6.89,8.92,–,–,–,pKi [12]: 6.68; Ki [13]: Not Active; pKi [17]: 7.37
COc1cc2c(N3CCN(C)CC3)nc3ccccc3c2c2ccccc12,–,6.62,7.38,–,Not Active,–,pKi [7]: 5.64
c1ccc2c(c1)OCCc1c(N3CCNCC3)nc3ccccc3c1-2,Not Active,5.49,–,–,–,–,pKi [12]: 6.38; pKi [17]: 6.48
CCN1CCN(c2nc3ccccc3c3c2cc(OC)c2ccccc23)CC1,–,6.16,6.66,–,Not Active,Not Active,–
CCN1CCN(c2nc3ccccc3c3c2COc2ccccc2-3)CC1,Not Active,5.96,7.27,Not Active,Not Active,Not Active,–
